# Results published in patent US11464802B2, “3-substituted piperidine compounds for Cbl-b inhibition, and use thereof” (Nurix Therapeutics, Inc., priority 2019, dated 2022).
# Like-named read-outs stand apart in the source and are kept apart here.
# Experiments:
# [1] = biological target: Cbl-b (Homo sapiens (Human), UniProt Q13191); assay: Cbl-b displacement assay (Cbl-b inhibition assay), TR-FRET probe displacement, Biological Example 1; format: binding
# Experimental: Candidate compounds were evaluated for their ability to bind and inhibit Cbl-b, an E3 ubiquitin-protein ligase, as evidenced by their ability to displace a fluorophore-labeled probe (Example 46) bound to Cbl-b.
# The ability of candidate compounds to displace a known inhibitor and thereby inhibit Cbl-b activity was measured by monitoring the interaction of Cbl-b with a fluorophore-labeled probe in the presence of the candidate compound. A truncated variant of Cbl-b (UniProt number Q13191; SEQ ID NO:1) containing an Avitag at its N-terminus was co-expressed with BirA biotin ligase and purified using a standard protocol (see Dou et al., Nature Structural and Molecular Biology 8: 982-987, 2013; Avidity LLC).
# Fluorescently-labeled inhibitor probe was synthesized and tagged with BODIPY FL (Example 46). Cbl-b displacement assays were performed in a 384-well plate at room temperature in a 10 μL reaction volume by pre-incubating 0.5 nM Cbl-b or 0.125 nM Cbl-b (final concentration, indicated as “High” and “Low”, respectively) in an assay buffer containing 20 mM HEPES pH 7.5, 150 mM NaCl, 0.01% Triton X-100, 0.01% BSA, and 0.5 mM TCEP in the presence of a candidate compound in 1% DMSO (final concentration) for 1 hour. After incubation in the presence of the candidate compound, the plate was incubated for an additional 1 hour in the presence of an approximate EC40 binding saturation consisting of 150 nM fluorescently-labeled inhibitor probe and 2 nM Streptavidin-Terbium (Cisbio) (final concentrations). Following the 1 hour incubation, the plates were read for TR-FRET signal at 520/620 nM using an Envision plate reader (Perkin Elmer).
# [2] = tested on: primary human total T-cells; assay: Primary human total T-cell activation: IL-2 secretion, Biological Example 2; format: cell-based; conditions: 48 hours, fold change over baseline; for fold induction at 0.3 µM: inhibitor 0.3 μM; for fold induction at 1 µM: inhibitor 1 μM; for fold induction at 3 µM: inhibitor 3 μM
# [3] = tested on: primary human total T-cells; assay: Primary human total T-cell activation: CD25 surface staining, Biological Example 2; format: cell-based; conditions: 48 hours, fold change over baseline; for fold induction at 0.3 µM: inhibitor 0.3 μM; for fold induction at 1 µM: inhibitor 1 μM; for fold induction at 3 µM: inhibitor 3 μM
# [4] = 0.125 nM Cbl-b final concentration (Low), read-out: Cbl-b activity IC50 (Low)
# [5] = Cbl-b concentration (High or Low) not given, read-out: IC50 values in the Cbl-b inhibition assay of Biological Example 1
# [6] = anti-CD3/anti-CD28 co-stimulation
# [7] = anti-CD3/anti-CD28 co-stimulation, read-out: IL-2 secretion CD3/CD28 1 μM
# [8] = anti-CD3 alone, read-out: IL-2 secretion CD3 1 μM
# [9] = anti-CD3/anti-CD28 co-stimulation, read-out: CD25 staining CD3/CD28 1 μM
# [10] = anti-CD3 alone, read-out: CD25 staining CD3 1 μM
# [11] = 0.5 nM Cbl-b final concentration (High), read-out: Cbl-b activity IC50 (High)
# Cbl-b, sequence (Q13191 36-427): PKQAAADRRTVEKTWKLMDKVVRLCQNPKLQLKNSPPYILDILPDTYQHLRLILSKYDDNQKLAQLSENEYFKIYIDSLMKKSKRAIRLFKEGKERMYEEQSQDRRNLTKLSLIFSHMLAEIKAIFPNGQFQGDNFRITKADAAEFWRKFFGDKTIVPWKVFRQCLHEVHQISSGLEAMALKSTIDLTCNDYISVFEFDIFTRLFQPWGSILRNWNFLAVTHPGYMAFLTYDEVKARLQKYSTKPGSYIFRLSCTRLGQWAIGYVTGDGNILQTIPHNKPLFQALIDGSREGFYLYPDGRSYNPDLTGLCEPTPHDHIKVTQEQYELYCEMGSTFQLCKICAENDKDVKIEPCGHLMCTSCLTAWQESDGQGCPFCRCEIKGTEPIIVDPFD
"IC50 [1, 4] [nM]","IC50 [1, 5] [nM]","IC50 [1, 11] [nM]",Structure (SMILES),"fold induction at 0.3 µM [2, 6]","fold induction at 1 µM [2, 7]","fold induction at 1 µM [2, 8]",fold induction at 3 µM ([2]; anti-CD3 alone),"fold induction at 0.3 µM [3, 6]","fold induction at 1 µM [3, 9]","fold induction at 1 µM [3, 10]",fold induction at 3 µM ([3]; anti-CD3 alone)
1 to 5,1 to 5,–,"C[C@@H]1CN(Cc2cc3c(c(C4CC4)n2)CN(c2cccc(C4(Cc5nncn5C(F)F)COC4)c2)C3=O)CCC1(F)F [Compound 38, 4-cyclopropyl-6-{[(3R)-4,4-difluoro-3-methylpiperidin-1-yl]methyl}-2-[3-(3-{[4-(difluoromethyl)-1,2,4-triazol-3-yl]methyl}oxetan-3-yl)phenyl]-3H-pyrrolo[3,4-c]pyridin-1-one]",> 15,> 15,> 0.66,> 0.66,> 1.39,> 1.39,> 1.14,> 1.14
< 1,< 1,–,"CCOc1cc(C2(Cc3nncn3C)COC2)cc(N2Cc3c(cc(CN4CCC[C@H](C)C4)nc3C3CC3)C2=O)n1 [Compound 40, 4-cyclopropyl-2-(6-ethoxy-4-{3-[(4-methyl-1,2,4-triazol-3-yl)methyl]oxetan-3-yl}pyridin-2-yl)-6-{[(3S)-3-methylpiperidin-1-yl]methyl}-3H-pyrrolo[3,4-c]pyridin-1-one]",> 15,> 15,> 0.66,> 0.66,> 1.39,> 1.39,> 1.14,> 1.14
–,–,1 to 5,"C[C@@H]1CN(Cc2cc3c(c(C(F)(F)F)c2)CN(c2cccc(C4(Cc5nncn5C)COC4)c2)C3=O)C[C@H](C)C1(F)F [Compound 17, 6-(((cis)-4,4-difluoro-3,5-dimethylpiperidin-1-yl)methyl)-2-(3-(3-((4-methyl-4H-1,2,4-triazol-3-yl)methyl)oxetan-3-yl)phenyl)-4-(trifluoromethyl)isoindolin-1-one]",11 to 15,> 15,> 0.66,> 0.66,> 1.39,1.25 to 1.39,> 1.14,> 1.14
1 to 5,–,–,"CCNc1cc(C2(Cc3nncn3C)COC2)cc(N2Cc3c(cc(CN4CCC(F)(F)[C@H](C)C4)nc3C3CC3)C2=O)n1 [Compound 42, (R)-4-cyclopropyl-6-((4,4-difluoro-3-methylpiperidin-1-yl)methyl)-2-(6-(ethylamino)-4-(3-((4-methyl-4H-1,2,4-triazol-3-yl)methyl)oxetan-3-yl)pyridin-2-yl)-2,3-dihydro-1H-pyrrolo[3,4-c]pyridin-1-one]",> 15,> 15,> 0.66,> 0.66,> 1.39,> 1.39,> 1.14,> 1.14
–,–,1 to 5,"Cn1cnnc1CC1(c2cccc(N3Cc4c(cc(CN5CCC(F)(F)[C@@]6(CCOC6)C5)cc4C(F)(F)F)C3=O)c2)COC1 [Compound 14, (S)-6-((10,10-difluoro-2-oxa-7-azaspiro[4.5]decan-7-yl)methyl)-2-(3-(3-((4-methyl-4H-1,2,4-triazol-3-yl)methyl)oxetan-3-yl)phenyl)-4-(trifluoromethyl)isoindolin-1-one]",< 10,11 to 15,0.34 to 0.66,0.34 to 0.66,< 1.24,< 1.24,1.05 to 1.14,< 1.04
–,–,5.1 to 100,"Cn1cnnc1CC1(c2cccc(N3Cc4c(cc(CN5CCCC6(CC6)C5)cc4C(F)(F)F)C3=O)c2)COC1 [Compound 7, 6-((5-azaspiro[2.5]octan-5-yl)methyl)-2-(3-(3-((4-methyl-4H-1,2,4-triazol-3-yl)methyl)oxetan-3-yl)phenyl)-4-(trifluoromethyl)isoindolin-1-one]",11 to 15,11 to 15,< 0.33,0.34 to 0.66,> 1.39,> 1.39,> 1.14,> 1.14
1 to 5,–,–,"CCOc1cc(C2(Cc3nncn3C)COC2)cc(N2Cc3c(cc(CN4CCC(F)(F)[C@H](C)C4)nc3C3CC3)C2=O)n1 [Compound 41, 4-cyclopropyl-6-{[(3R)-4,4-difluoro-3-methylpiperidin-1-yl]methyl}-2-(6-ethoxy-4-{3-[(4-methyl-1,2,4-triazol-3-yl)methyl]oxetan-3-yl}pyridin-2-yl)-3H-pyrrolo[3,4-c]pyridin-1-one]",> 15,> 15,> 0.66,> 0.66,> 1.39,> 1.39,> 1.14,> 1.14
–,1 to 5,1 to 5,"Cn1cnnc1CC1(c2cccc(N3Cc4c(cc(CN5CCC(F)(F)[C@H](C#N)C5)cc4C(F)(F)F)C3=O)c2)COC1 [Compound 11, (S)-4,4-difluoro-1-((2-(3-(3-((4-methyl-4H-1,2,4-triazol-3-yl)methyl)oxetan-3-yl)phenyl)-3-oxo-7-(trifluoromethyl)isoindolin-5-yl)methyl)piperidine-3-carbonitrile]",< 10,11 to 15,< 0.33,< 0.33,1.25 to 1.39,1.25 to 1.39,< 1.04,< 1.04
–,1 to 5,1 to 5,"C[C@@H]1CCCN(Cc2cc3c(c(C(F)(F)F)c2)CN(c2cccc(C4(Cc5nncn5C)COC4)c2)C3=O)C1 [Compound 3, (R)-2-(3-(3-((4-methyl-4H-1,2,4-triazol-3-yl)methyl)oxetan-3-yl)phenyl)-6-((3-methylpiperidin-1-yl)methyl)-4-(trifluoromethyl)isoindolin-1-one]",11 to 15,> 15,0.34 to 0.66,0.34 to 0.66,1.25 to 1.39,1.25 to 1.39,1.05 to 1.14,1.05 to 1.14
5.1 to 100,5.1 to 100,–,"Cn1cnnc1CC1(c2cccc(N3Cc4c(cc(CN5CC(C(F)(F)F)C[C@H](C(F)(F)F)C5)cc4C(F)(F)F)C3=O)c2)COC1 (stereo partly drawn) [Compound 21, cis-6-{[3,5-bis(trifluoromethyl)piperidin-1-yl]methyl}-2-(3-{3-[(4-methyl-1,2,4-triazol-3-yl)methyl]oxetan-3-yl}phenyl)-4-(trifluoromethyl)-3H-isoindol-1-one]",< 10,< 10,< 0.33,< 0.33,1.25 to 1.39,1.25 to 1.39,< 1.04,< 1.04
1 to 5,1 to 5,–,"Cn1cnnc1CC1(c2cccc(N3Cc4c(cc(CN5CCCC(CC#N)C5)cc4C(F)(F)F)C3=O)c2)COC1 (stereo not drawn) [Compound 4, 2-(1-((2-(3-(3-((4-methyl-4H-1,2,4-triazol-3-yl)methyl)oxetan-3-yl)phenyl)-3-oxo-7-(trifluoromethyl)isoindolin-5-yl)methyl)piperidin-3-yl)acetonitrile]",> 15,> 15,0.34 to 0.66,0.34 to 0.66,> 1.39,> 1.39,> 1.14,> 1.14
1 to 5,–,–,"C[C@H]1CCCN(Cc2cc3c(c(C4CC4)n2)CN(c2cccc(C4(Cc5nncn5C)COC4)c2)C3=O)C1 [Compound 35, (S)-4-Cyclopropyl-2-(3-(3-((4-methyl-4H-1,2,4-triazol-3-yl)methyl)oxetan-3-yl)phenyl)-6-((3-methylpiperidin-1-yl)methyl)-2,3-dihydro-1H-pyrrolo[3,4-c]pyridin-1-one]",11 to 15,> 15,0.34 to 0.66,> 0.66,< 1.24,1.25 to 1.39,1.05 to 1.14,> 1.14
